Among the data in ChEMBL document CHEMBL1122450, “Biological effects of modified colchicines. 2. Evaluation of catecholic colchicines, colchifolines, colchicide, and novel N-acyl- and N-aroyldeacetylcolchicines” (J Med Chem, 1983) are Potency, Toxicity and Binding values, retold here.

Data set [1] concerns P388. Description: Potency against lymphocytic leukemia P388 screen in mice. In kind it is functional, Mus musculus.
Data set [2] is filed under the species Mus musculus. Nature of the data set: Toxicity in the P388 NCI screen defined as the dose that caused an average wt. loss>3g in at least one out of set of mice or the death of one or more of mice. In kind it is organism-based. Conditions: in vivo.
In data set [3] the test system is Mus musculus. Nature of the data set: Toxicity found after a single intramuscular injection in mice. Conditions: in vivo, im.
For data set [4], the system named is Tubulin (Rattus norvegicus). Conditions: Brain, at 25 µM.
Data set [5] deals with P388. Nature of the data set: Potency against lymphocytic leukemia P388 screen in mice; inactive. In kind it is functional, cell-based. Conditions: Mus musculus.
Data set [6] is filed under the species Mus musculus. Nature of the data set: Toxicity in the P388 NCI screen in second assay. The class given is organism-based. The settings on record: in vivo.

SMILES strings stand for the structures. Active and inactive are the calls of the source.

In the data set on P388 [1], `COc1cc(C(=O)N[C@H]2CCc3cc(OC)c(OC)c(OC)c3-c3ccc(OC)c(=O)cc32)cc(OC)c1OC` registered a Potency of 14 µM/kg. Further, the Toxicity in the data set filed under Mus musculus [2] was 72.6 µM/kg; with Mus musculus [3], more than 180 µM/kg.

`CCCC(=O)N[C@H]1CCc2cc(OC)c(OC)c(OC)c2-c2ccc(OC)c(=O)cc21`: the Potency in the data set on P388 [1] was 0.7 µM/kg. The Toxicity in the data set listed under Mus musculus [2] and in the data set on Mus musculus [3] was 5.8 µM/kg in each case.

Consider `COc1cc2c(c(OC)c1OC)-c1cccc(=O)cc1[C@@H](NC(C)=O)CC2` [CHOLCHICIDE], for which the Potency in the data set on P388 [1] is 9.2 µM/kg. The Toxicity in the data set filed under Mus musculus [2] amounted to 54.2 µM/kg; in the data set on Mus musculus [3] it was 168.9 µM/kg.

`COc1cc2c(c(OC)c1Oc1nnnn1-c1ccccc1)-c1ccc(OC)c(=O)cc1[C@@H](NC(C)=O)CC2`: the Binding in data set [4] came out at 52%.

In turn, `CCC(=O)N[C@H]1CCc2cc(OC)c(OC)c(OC)c2-c2ccc(=O)c(OC)cc21` returned a Binding in data set [4] of 10%.

`CCOCC(=O)N[C@H]1CCc2cc(OC)c(OC)c(OC)c2-c2ccc(OC)c(=O)cc21` yielded a Potency in the data set with P388 [1] of 0.4 µM/kg. The Toxicity came out at 2.8 µM/kg in the data set filed under Mus musculus [2] and 9 µM/kg in the data set on Mus musculus [3].

The compound `COc1cc2c(c(OC)c1OC)-c1ccc(OC)c(=O)cc1[C@@H](NC(=O)COc1ccccc1)CC2` gave a Potency in the data set on P388 [1] of 1.3 µM/kg. The Toxicity stood at 5.1 µM/kg in the data set filed under Mus musculus [2] and 61.3 µM/kg with Mus musculus [3].

Turning to `COc1cc2c(c(OC)c1OC)-c1ccc(OC)c(=O)cc1[C@@H](N(C)C(=O)CO)CC2`, the Potency with P388 [1] was 0.6 µM/kg. In data set [4], this compound showed a Binding of 99%. The Toxicity in the data set filed under Mus musculus [2] is 2.9 µM/kg; in the data set with Mus musculus [3], 14.5 µM/kg.

In the data set on P388 [1], `COc1cc2c(c(OC)c1OC)-c1ccc(OC)c(=O)cc1[C@@H](NC(C)=O)CC2` [COLCHICINE] showed a Potency of 0.4 µM/kg. The Toxicity in the data set listed under Mus musculus [2] was 2.5 µM/kg; in the data set with Mus musculus [3], 3 µM/kg.

As to `COc1cc2c(c(O)c1O)-c1ccc(OC)c(=O)cc1[C@@H](NC(C)=O)CC2`, the Potency entry in the data set with P388 [5] was “inactive”. Besides, the figures for the Toxicity in the data set listed under Mus musculus [2] and in the data set on Mus musculus [3] were more than 320 µM/kg and more than 450 µM/kg, respectively.

On to `COc1cc2c(c(OC)c1O)-c1ccc(OC)c(=O)cc1[C@@H](NC(=O)C(F)(F)F)CC2`, for which the Potency in the data set with P388 [1] turned out to be 3.8 µM/kg. Moreover, the Binding in data set [4] came out at 96%. In addition, the Toxicity in the data set listed under Mus musculus [2] was determined as 23.5 µM/kg; in the data set on Mus musculus [3], 32.5 µM/kg.

`CCC(=O)N[C@H]1CCc2cc(OC)c(OC)c(OC)c2-c2ccc(OC)c(=O)cc21`: the Toxicity in the data set with Mus musculus [3] stood at 8.2 µM/kg.

Turning to `COc1c(O)c(O)cc2c1-c1ccc(OC)c(=O)cc1[C@@H](NC(C)=O)CC2`, in the data set with P388 [1], the Potency stood at 20 µM/kg. For the same compound, the Toxicity in the data set listed under Mus musculus [2] was 54 µM/kg; with Mus musculus [3] it was more than 450 µM/kg.

On to `COc1cc2c(c3c1OCO3)-c1ccc(OC)c(=O)cc1[C@@H](NC(C)=O)CC2`, for which, in the data set with P388 [5], the Potency entry is “inactive”. Moreover, the Toxicity in the data set listed under Mus musculus [2] was 104 µM/kg; with Mus musculus [3] it was more than 167 µM/kg.

In turn, `COc1cc2c(c(OC)c1OC)-c1ccc(OC)c(=O)cc1[C@@H](NC(=O)/C=C(\C)C=C=C(C)/C=C/C1=C(C)CCCC1(C)C)CC2` gave a Binding in data set [4] of 41%.

`COc1c(Oc2nnnn2-c2ccccc2)cc2c(c1OC)-c1ccc(OC)c(=O)cc1[C@@H](NC(C)=O)CC2` had a Binding in data set [4] of 27%.

In data set [4], `COc1cc(/C=C/C(=O)N[C@H]2CCc3cc(OC)c(OC)c(OC)c3-c3ccc(OC)c(=O)cc32)cc(OC)c1O` yielded a Binding of 69%.

Turning to `CCOC(=O)N[C@H]1CCc2cc(OC)c(OC)c(OC)c2-c2ccc(OC)c(=O)cc21`, the Toxicity in the data set listed under Mus musculus [2] came out at 11.7 µM/kg; in the data set listed under Mus musculus [6], 1.5 µM/kg.

`COc1c2c(cc3c1-c1ccc(OC)c(=O)cc1[C@@H](NC(C)=O)CC3)OCO2` displayed a Potency in the data set with P388 [1] of less than 10 µM/kg. Also, the Toxicity worked out at 39.1 µM/kg in the data set filed under Mus musculus [2] and 9.7 µM/kg in the data set on Mus musculus [3].

In the data set with Mus musculus [3], `COc1cc2c(c(OC)c1OC)-c1ccc(OC)c(=O)cc1[C@@H](NC(=O)C(C)(C)C)CC2` yielded a Toxicity of 9.3 µM/kg.

`COc1cc2c(c(OC)c1OC)-c1ccc(OC)c(=O)cc1[C@@H](NC(=O)CO)CC2` [COLCHIFOLINE] showed a Potency in the data set on P388 [1] of 0.7 µM/kg. The results for the Toxicity in the data set filed under Mus musculus [2] and with Mus musculus [3] were 3 µM/kg and 3.9 µM/kg, respectively.

In the data set on P388 [1], `COc1cc2c(c(OC)c1OC)-c1ccc(OC)c(=O)cc1[C@@H](NC(=O)c1ccccc1)CC2` had a Potency of 1 µM/kg. Besides, the figures for the Toxicity in the data set listed under Mus musculus [2] and in the data set on Mus musculus [3] were 4.3 µM/kg and 60.5 µM/kg, respectively.

Regarding `COc1cc2c(c(OC)c1OC)-c1ccc(=O)c(OC)cc1[C@@H](NC(=O)CO)CC2`, in data set [4], the Binding is 0%.
